{
  "source": "patent US20160279063A1",
  "about": "“COMPOSITION OF EXCIPIENTS AND PHARMACEUTICAL FORMS WITH SUSTAINED RELEASE AND INCREASED BIOAVAILABILITY OF ANTIBACTERIAL DRUGS, ANTICOCCIDIAL DRUGS AND OTHER DRUGS FOR COMMERCIAL POULTRY AND PIGS” (priority 2012, published 2016)",
  "key": {"[1]": {"conditions": "cited from earlier work"}, "[2]": {"assay": "Florphenicol pharmacokinetics, FOLA vs commercially available, 20 mg/kg, 3 days", "format": "in vivo, commercial poultry", "conditions": "along three days, 20 mg/kg in food, when included in FOLA system", "experimental": "Note generation of concentrations higher than traditional system (Cmax, MRT and AUC), which makes suitable its PK/PD ratio when included in FOLA system.\nNote a generation of concentrations lower than 3 μg/mL, making suitable its PK/PD ratio when included in FOLA system.\nTests in Commercial Poultry\nVariables disclosed below are pharmacokinetically obtained for florphenicol in FOLA and a commercially available reference preparation administered during 3 days: […]"}, "[3]": {"conditions": "pigs, cited from earlier work; for F (bioavailability): conventional oral administration"}, "[4]": {"assay": "Background bioavailability and elimination of drugs in pigs", "conditions": "associated to FOLA system, single dose in the morning with food", "description": "Serum concentrations are not reached by night and in breeding sows doses should be 3000 ppm as they only eat an average of 2 kg with a weight of 300 kg. This is obviously not performed as they would reject food. • Tylosin and tiamulin are often underdosed due to costs. […] FOLA system achieves that easily even better than if that would have been injected. • Provision of phosphomycin in food is not useful since its F is below 20% and is eliminated in a few hours. Associated to FOLA system the results allow a single dose in the morning with food reaching F close to 100% and during 24 hours."}, "[5]": {"conditions": "humans; cited from earlier work"}, "[6]": {"assay": "Tylosin tartrate pharmacokinetics, FOLA vs commercially available, 200 ppm in food", "format": "in vivo, commercial poultry", "conditions": "when included in FOLA system, food ad libitum, poultry of 1.9 kg", "description": "Note generation of concentrations quite higher than traditional system (Cmax, MRT and AUC), which makes suitable its PK/PD ratio when included in FOLA system.\nFor Tylosin in commercial poultry, very high concentrations are achieved when FOLA system is used and which remain with therapeutic effect along night as shown in charts of FIGS. 4a and 4b. Variables disclosed below are pharmacokinetically obtained for tylosin in FOLA and a commercially available reference preparation: […]"}, "[7]": {"conditions": "commercial poultry, conventional oral administration"}},
  "note": "Structures can show the parent of a compound that is named as a salt. Where two headings read alike, the source gives them in different places.",
  "data": [
    {"smiles": "CC[C@H]1OC(=O)[C@H](C)[C@@H](O[C@H]2C[C@@](C)(OC)[C@@H](O)[C@H](C)O2)[C@H](C)[C@@H](O[C@@H]2O[C@H](C)C[C@H](N(C)C)[C@H]2O)[C@](C)(O)C[C@@H](C)C(=O)[C@H](C)[C@@H](O)[C@]1(C)O", "note": "[Erithromycin]", "values": [
      {"measurement": "F (bioavailability)", "setting": "[1]; in vivo, po", "value": 18, "unit": "%"}
    ]},
    {"smiles": "CS(=O)(=O)c1ccc([C@@H](O)[C@@H](CF)NC(=O)C(Cl)Cl)cc1", "note": "[Florphenicol]", "values": [
      {"measurement": "serum concentrations (FIG. 8b)", "setting": "[2]", "value": "lower than 3 μg/mL"}
    ]},
    {"smiles": "CCC[C@@H]1C[C@@H](C(=O)N[C@@H]([C@H]2O[C@H](SC)[C@H](O)[C@@H](O)[C@H]2O)[C@@H](C)O)N(C)C1", "note": "[Lincomycin]", "values": [
      {"measurement": "life", "setting": "[3]", "value": "≥ 20", "unit": "%"}
    ]},
    {"smiles": "CN(C)[C@@H]1C(O)=C(C(N)=O)C(=O)[C@@]2(O)C(O)=C3C(=O)c4c(O)cccc4[C@@](C)(O)[C@H]3[C@H](O)[C@@H]12", "note": "[Oxytetracycline]", "values": [
      {"measurement": "F (bioavailability)", "setting": "[1]; [7]", "value": 20, "unit": "%"},
      {"measurement": "F (bioavailability)", "setting": "[1]; commercial poultry, conventional oral administration, listed as oxytetracycline base", "value": "around 20%"}
    ]},
    {"smiles": "C[C@@H]1O[C@@H]1P(=O)(O)O", "note": "[Phosphomycin]", "values": [
      {"measurement": "F (bioavailability)", "setting": "[4]", "value": "~100", "unit": "%"},
      {"measurement": "F (bioavailability)", "setting": "[3]", "value": "below 20%"},
      {"measurement": "time to removal from plasma and tissues", "setting": "[1]; in water, usual doses 10-40 mg/kg/day", "value": "6 to 8", "unit": "h"}
    ]},
    {"smiles": "CN[C@@H]1[C@H](O)[C@H](NC)[C@H]2O[C@@]3(O)C(=O)C[C@@H](C)O[C@H]3O[C@@H]2[C@H]1O", "note": "[Spectinomycin]", "values": [
      {"measurement": "F (bioavailability)", "setting": "[3]", "value": 7, "unit": "%"}
    ]},
    {"smiles": "COc1cc(Cc2cnc(N)nc2N)cc(OC)c1OC", "note": "[TMP, trimethoprim]", "values": [
      {"measurement": "elimination half-life", "setting": "[3]", "value": 1, "unit": "h"},
      {"measurement": "T½β", "setting": "[1]; birds", "value": 1, "unit": "h"},
      {"measurement": "T½β", "setting": "[5]", "value": 10, "unit": "h"}
    ]},
    {"smiles": "CC[C@H]1OC(=O)C[C@@H](O)[C@H](C)[C@@H](O[C@@H]2O[C@H](C)[C@@H](O[C@H]3C[C@@](C)(O)[C@@H](O)[C@H](C)O3)[C@H](N(C)C)[C@H]2O)[C@@H](CC=O)C[C@@H](C)C(=O)/C=C/C(C)=C/[C@@H]1CO[C@@H]1O[C@H](C)[C@@H](O)[C@@H](OC)[C@H]1OC", "note": "[Tylosin]", "values": [
      {"measurement": "F (bioavailability)", "setting": "[1]; [7]", "value": "< 40", "unit": "%"}
    ]},
    {"smiles": "CN(C)[C@@H]1C(O)=C(C(N)=O)C(=O)[C@@]2(O)C(O)=C3C(=O)c4c(O)ccc(Cl)c4[C@@](C)(O)[C@H]3C[C@@H]12", "note": "[chlortetracycline]", "values": [
      {"measurement": "F (bioavailability)", "setting": "[1]; [7]", "value": 20, "unit": "%"}
    ]},
    {"smiles": "CC[C@H]1OC(=O)C[C@@H](O)[C@H](C)[C@@H](O[C@@H]2O[C@H](C)[C@@H](O[C@H]3C[C@@](C)(O)[C@@H](O)[C@H](C)O3)[C@H](N(C)C)[C@H]2O)[C@@H](CC=O)C[C@@H](C)C(=O)/C=C/C(C)=C/[C@@H]1CO[C@@H]1O[C@H](C)[C@@H](O)[C@@H](OC)[C@H]1OC", "note": "[tylosin tartrate]", "values": [
      {"measurement": "concentrations reached (FIG. 4b)", "setting": "[6]", "value": "exceeding 1.5 μg/mL"}
    ]}
  ]
}
